Here are results for 30 compounds from patent publication US20240150356A1, “Pyrimidine amide compounds and use thereof” (ALPHALA CO., LTD., priority 2019, published 2024).

A value given as a limit tells only on which side of the number the result lay.

A word on the LC50: it is the concentration that kills 50% of the test population.

In one test the test system is Hep3B cells (hepatocellular carcinoma cell line). The test is described as follows: In vitro MTS cell viability assay (NCI-60 methodology), Hep3B. Format: cell-based. The conditions noted are these: Homo sapiens, 48 h, Table 1, MTS, 2 days drug incubation, 50% reduction vs time zero, read-out: Hep3B LC50. A digest of the protocol:
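Following NCI-60 method, MTS viability of Hep3B measured 24 h after plating (time zero) and after a further 2-day exposure to five concentrations (2-fold series). LC50 defined where [(Ti−Tz)/Tz]×100 = −50.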
On the technique in general: Formazan colour is commonly taken as a measure of viable cells.
As for `Cn1ncc2c(NC(=O)c3ccc([N+](=O)[O-])s3)nc(C#Cc3ccc(C(F)(F)F)cc3)nc21` [Compound 1-13, N-(1-methyl-6-((4-(trifluoromethyl)phenyl)ethynyl)-1H-pyrazolo[3,4-d]pyrimidin-4-yl)-5-nitrothiophene-2-carboxamide], the LC50 is 2030 nM.
Regarding `CN(C)CCn1ncc2c(NC(=O)c3ccc([N+](=O)[O-])s3)nc(-c3ccc(OC(F)(F)F)cc3)nc21` [Compound 1-31, N-(1-(2-(dimethylamino)ethyl)-6-(4-(trifluoromethoxy)phenyl)-1H-pyrazolo[3,4-d]pyrimidin-4-yl)-5-nitrothiophene-2-carboxamide], the LC50 turned out to be 1860 nM.

Still in this test, the particulars now being: Homo sapiens, 48 h, Table 4, MTS, 2 days drug incubation, 50% reduction vs time zero, read-out: Hep3B LC50.
`Cc1csc2c(NC(=O)c3ccc([N+](=O)[O-])s3)nc(-c3cc(C(F)(F)F)ccc3F)nc12` [Compound 4-13, N-(2-(2-fluoro-5-(trifluoromethyl)phenyl)-7-methylthieno[3,2-d]pyrimidin-4-yl)-5-nitrothiophene-2-carboxamide]: the LC50 was 1700 nM.

Staying with this test, now noted: Homo sapiens, 48 h, Table 5, MTS, 2 days drug incubation, 50% reduction vs time zero, read-out: Hep3B LC50.
`CN(C)CCOc1nc(NC(=O)c2ccc([N+](=O)[O-])s2)c2cnn(-c3ccccc3)c2n1` [Compound 5-11, N-(6-(2-(dimethylamino)ethoxy)-1-phenyl-1H-pyrazolo[3,4-d]pyrimidin-4-yl)-5-nitrothiophene-2-carboxamide]: the LC50 is 4130 nM.
`O=C(Nc1nc(-c2cccc(C(F)(F)F)c2)nc2c1cnn2-c1ccccc1)c1ccc([N+](=O)[O-])s1` [Compound 5-38, 5-nitro-N-(1-phenyl-6-(3-(trifluoromethyl)phenyl)-1H-pyrazolo[3,4-d]pyrimidin-4-yl)thiophene-2-carboxamide]: the LC50 was 450 nM.
On to `O=C(Nc1nc(-c2cc(F)c(F)c(F)c2)nc2c1cnn2-c1ccccc1)c1ccc([N+](=O)[O-])s1` [Compound 5-53, 5-nitro-N-(1-phenyl-6-(3,4,5-trifluorophenyl)-1H-pyrazolo[3,4-d]pyrimidin-4-yl)thiophene-2-carboxamide], for which the LC50 was > 1250 nM.
Turning to `O=C(Nc1nc(-c2ccsc2)nc2c1cnn2-c1ccccc1)c1ccc([N+](=O)[O-])s1` [Compound 5-20, 5-nitro-N-(1-phenyl-6-(thiophen-3-yl)-1H-pyrazolo[3,4-d]pyrimidin-4-yl)thiophene-2-carboxamide], the LC50 was 1110 nM.
On to `Cc1ccc(-c2nc(NC(=O)c3ccc([N+](=O)[O-])s3)c3cnn(-c4ccccc4)c3n2)cn1` [Compound 5-34, N-(6-(6-methylpyridin-3-yl)-1-phenyl-1H-pyrazolo[3,4-d]pyrimidin-4-yl)-5-nitrothiophene-2-carboxamide], for which the LC50 was found to be 850 nM.
Take `O=C(Nc1nc(-c2ccc(C(F)(F)F)cc2F)nc2c1cnn2-c1ccccc1)c1ccc([N+](=O)[O-])s1` [Compound 5-51, N-(6-(2-fluoro-4-(trifluoromethyl)phenyl)-1-phenyl-1H-pyrazolo[3,4-d]pyrimidin-4-yl)-5-nitrothiophene-2-carboxamide]: the LC50 was determined as 370 nM.

Still in this test, the particulars now being: Homo sapiens, 48 h, Table 6, MTS, 2 days drug incubation, 50% reduction vs time zero, read-out: Hep3B LC50.
Regarding `O=C(Nc1nc(N2CCCCC2)nc2c1cnn2-c1ccc(Cl)cc1)c1ccc([N+](=O)[O-])s1` [Compound 6-47, N-(1-(4-chlorophenyl)-6-(piperidin-1-yl)-1H-pyrazolo[3,4,d]pyrimidin-4-yl)-5-nitrothiophene-2-carboxamide], the LC50 was found to be 710 nM.
Still for that read-out and setting: with `CC(C)(C)c1ccc(-n2ncc3c(NC(=O)c4ccc([N+](=O)[O-])s4)nc(N4CC(F)(F)C4)nc32)cc1` [Compound 6-65, N-(1-(4-(tert-butyl)phenyl)-6-(3,3-difluoroazetidin-1-yl)-1H-pyrazolo[3,4-d]pyrimidin-4-yl)-5-nitrothiophene-2-carboxamide] the figure was 320 nM; with `COc1ccc(-n2ncc3c(NC(=O)c4ccc([N+](=O)[O-])s4)nc(-c4ccc(C)nc4)nc32)cc1` [Compound 6-17, N-(1-(4-methoxyphenyl)-6-(6-methylpyridin-3-yl)-1H-pyrazolo[3,4,d]pyrimidin-4-yl)-5-nitrothiophene-2-carboxamide], 190 nM; with `CC1(C)CCC(c2nc(NC(=O)c3ccc([N+](=O)[O-])s3)c3cnn(-c4ccc(F)cc4)c3n2)CC1` [Compound 6-145, N-(6-(4,4-dimethylcyclohexyl)-1-(4-fluorophenyl)-1H-pyrazolo[3,4-d]pyrimidin-4-yl)-5-nitrothiophene-2-carboxamide], 890 nM.
For the compound `O=C(Nc1nc(-c2cccc(OC(F)(F)F)c2)nc2c1cnn2-c1cccc(Cl)c1)c1ccc([N+](=O)[O-])s1` [Compound 6-40, N-(1-(3-chlorophenyl)-6-(3-(trifluoromethoxy)phenyl)-1H-pyrazolo[3,4-d]pyrimidin-4-yl)-5-nitrothiophene-2-carboxamide], the LC50 turned out to be 480 nM.
`COCCN(C)c1ccc(-c2nc(NC(=O)c3ccc([N+](=O)[O-])s3)c3cnn(-c4cccc(F)c4)c3n2)cn1` [Compound 6-93]: the LC50 came to 400 nM.
Turning to `CCOc1cc(Cl)ccc1-c1nc(NC(=O)c2ccc([N+](=O)[O-])s2)c2cnn(-c3ccc(F)cc3)c2n1` [Compound 6-129, N-(6-(4-chloro-2-ethoxyphenyl)-1-(4-fluorophenyl)-1H-pyrazolo[3,4-d]pyrimidin-4-yl)-5-nitrothiophene-2-carboxamide], the LC50 is > 3000 nM.
Regarding `CCOCCOCCOc1ccc(-c2nc(NC(=O)c3ccc([N+](=O)[O-])s3)c3cnn(-c4ccc(C(C)(C)C)cc4)c3n2)cn1` [Compound 6-83, N-(1-(4-(ter-butyl)phenyl)-6-(6-(2-(2-ethoxyethoxy)ethoxy)pyridin-3-yl)-1H-pyrazolo[3,4-d]pyrimidin-4-yl)-5-nitrothiophene-2-carboxamide], the LC50 stood at 410 nM.
For `CCOCCOc1ccc(-c2nc(NC(=O)c3ccc([N+](=O)[O-])s3)c3cnn(-c4ccc(OC)cc4)c3n2)cn1` [Compound 6-27, N-(6-(6-(2-ethoxyethoxy)pyridin-3-yl)-1-(4-methoxyphenyl)-1H-pyrazolo[3,4-d]pyrimidin-4-yl)-5-nitrothiophene-2-carboxamide], the LC50 was 210 nM.
In the case of `CCOCCOc1ccc(-c2nc(NC(=O)c3ccc([N+](=O)[O-])s3)c3cnn(-c4cccc(F)c4)c3n2)cn1` [Compound 6-95, N-(6-(6-(2-ethoxyethoxy)pyridin-3-yl)-1-(3-fluorophenyl)-1H-pyrazolo[3,4-d]pyrimidin-4-yl)-5-nitrothiophene-2-carboxamide], the LC50 is 290 nM.

The test is the same for the next values; noted with them: Homo sapiens, 48 h, Table 7, MTS, 2 days drug incubation, 50% reduction vs time zero, read-out: Hep3B LC50.
For the compound `C=CC(=O)Nc1ccc(-n2ncc3c(NC(=O)c4ccc([N+](=O)[O-])s4)nc(-c4ccc(F)cc4)nc32)cc1` [Compound 7-19, N-(1-(4-acrylamidophenyl)-6-(4-fluorophenyl)-1H-pyrazolo[3,4-d]pyrimidin-4-yl)-5-nitrothiophene-2-carboxamide], the LC50 was determined as 190 nM.

The same test, now with this note: Homo sapiens, 48 h, Table 8, MTS, 2 days drug incubation, 50% reduction vs time zero, read-out: Hep3B LC50.
As to `CC(C)(C)OC(=O)N1CC[C@H](n2ncc3c(NC(=O)c4ccc([N+](=O)[O-])s4)nc(-c4ccc(F)nc4)nc32)C1` [Compound 8-7, tert-butyl (S)-3-(6-(6-fluoropyridin-3-yl)4-(5-nitrothiophene-2-carboxamido)-1H-pyrazolo[3,4-d]pyrimidin-1-yl)pyrrolidine-1-carboxylate], the 50% lethal concentration (LC50) amounted to 1490 nM.

Still in this test, the particulars now being: Homo sapiens, 48 h, Table 9, MTS, 2 days drug incubation, 50% reduction vs time zero, read-out: Hep3B LC50.
`C=CC(=O)N1CCC(n2ncc3c(NC(=O)c4ccc([N+](=O)[O-])s4)nc(-c4ccc(F)nc4)nc32)CC1` [Compound 9-6]: the LC50 was 1250 nM.
On the same count and under the same terms, as for `CC(C)(C)OC(=O)N1CCC(n2ncc3c(NC(=O)c4ccc([N+](=O)[O-])s4)nc(-c4ccc(F)nc4)nc32)CC1` [Compound 9-4, tert-butyl 4-(6-(6-fluoropyridin-3-yl)-4-(5-nitrothiophene-2-carboxamido)-1H-pyrazolo[3,4-d]pyrimidin-1-yl)piperidine-1-carboxylate], the figure is 930 nM.

The same test, now with this note: Homo sapiens, 48 h, Table 10, MTS, 2 days drug incubation, 50% reduction vs time zero, read-out: Hep3B LC50.
With `Cc1ccc(-c2nc(NC(=O)c3ccc([N+](=O)[O-])s3)c3cnn(C4CCCCC4)c3n2)cn1` [Compound 10-19], the LC50 worked out at 1130 nM.
Take `CCOc1ccc(-c2nc(NC(=O)c3ccc([N+](=O)[O-])s3)c3cnn(C4CCCCC4)c3n2)cc1Cl` [Compound 10-44]: the LC50 was > 2000 nM.
On to `CC1CC(C)CC(n2ncc3c(NC(=O)c4ccc([N+](=O)[O-])s4)nc(-c4ccc(Cl)cc4)nc32)C1` (stereo not drawn) [Compound 10-69, N-(6-(4-chlorophenyl)-1-(3,5-dimethylcyclohexyl)-1H-pyrazolo[3,4-d]pyrimidin-4-yl)-5-nitrothiophene-2-carboxamide], for which the LC50 is 860 nM.
Turning to `O=C(Nc1nc(-c2cccs2)nc2c1cnn2C1CCCCC1)c1ccc([N+](=O)[O-])s1` [Compound 10-5, N-(1-cyclohexyl-6-(thiophen-2-yl)-1H-pyrazolo[3,4-d]pyrimidin-4-yl)-5-nitrothiophene-2-carboxamide], the LC50 is 750 nM.
`O=C(Nc1nc(-c2cccc(Cl)c2)nc2c1cnn2C1CCCCC1)c1ccc([N+](=O)[O-])s1` [Compound 10-16, N-(6-(3-chlorophenyl)-1-cyclohexyl-1H-pyrazolo[3,4-d]pyrimidin-4-yl)-5-nitrothiophene-2-carboxamide]: the LC50 came to 610 nM.
For the compound `COc1cncc(-c2nc(NC(=O)c3ccc([N+](=O)[O-])s3)c3cnn(C4CCCCC4)c3n2)c1` [Compound 10-22], the LC50 stood at 1160 nM.
`CC(C)(C)c1ccc(-c2nc(NC(=O)c3ccc([N+](=O)[O-])s3)c3cnn(C4CCCCC4)c3n2)cc1` [Compound 10-35, N-(6-(4-(tert-butyl)phenyl)-1-cyclohexyl-1H-pyrazolo[3,4,d]pyrimidin-4-yl)-5-nitrothiophene-2-carboxamide]: the LC50 worked out at 1330 nM.
